From patent US20070032477A1, “Pteridine derivatives useful for making pharmaceutical compositions” (priority 2003, published 2007)

Key:
[1] = system: CII induced rheumatoid arthritis in DBA mice; assay: Collagen type II induced model of rheumatoid arthritis; conditions: mice in vivo; example 17 up to 40 mg/kg/day; methotrexate 10 mg/kg/day, 3 times a week
Text: Collagen type II (hereinafter referred as CII) induced experimental model of rheumatoid arthritis (hereinafter referred as RA) in DBA mice is widely accepted as the most relevant and predictive preclinical model for RA. In this model, DBA mice are immunized with CII, the collagen type mainly present in the joint structures, together with complete Freund Adjuvant in their tail. 2 to 3 weeks later, several of the immunized mice start to develop arthritis in the four footpaths. In order to further worsen the disease, mice are given a second CII boost at three weeks after the first immunisation, this time however in a footpath. Because the immune system is already immunised in these mice, this rapidly provokes a severe swelling of the injected footpath (named Delayed Type Hypersensitivity or DTH) which can be used as a measurement for T-cell activation. Within a few days after the booster, almost all untreated animals start developing symptoms of arthritis. RA development is scored from 0 to 16 (16 being severe clinical arthritis in all four footpaths). At the end of the study (3 weeks after the CII boost) antibody formation was determined against CII and histology performed on the footpaths.
The efficiency of the pteridine derivative of example 17 (administered in an amount of 20 mg/kg/day, started one day before the CII boost) was explored in this CII-model.

[2] = system: B16BL/6 melanomasarcoma cells in C57BL/6 mice; assay: Inhibition of the metastasis of melanoma cells in mice; type: in vivo; conditions: for proportion of mice having metastasis: inguinal and/or para-aortic lymph nodes
Protocol: C57BL/6 mice were injected with 1.5×10^6 B16BL/6 melanomasarcoma cells subcutaneously in the foot path and were divided, three days later, into 4 groups: • a control 1 group of 6 mice receiving only vehicle 3 times a week; • a control 2 group of 5 mice receiving a lethal dose of TNF (15 μg, subcutaneously) 3 times a week; • a group 3 receiving the pteridine derivative of example 17 alone 3 times a week at 20 mg/kg • a group 4 of 7 mice receiving the pteridine derivative of example 17 in an amount of 20 mg/kg intraperitenously on days 3, 4, and 5 and also receiving TNF (15 μg, subcutaneously) on day 5. This combined treatment with TNF and the pteridine derivative of example 17 was continued for 2 weeks.
Reduction of tumor size is also true in mice of group 3, although to a lesser extent (198 mm^2).
All mice of control group 2 died within the very first days of treatment, whereas mortality was 3/7 in mice of group 4.
At the end of experiment, it was looked macroscopically at black metastasis in inguinal and/or para-aortic lymphoneuds in all tumor bearing groups of mice. The proportions of mice having metastasis were: • 4/5 mice in control group 1, • 0/4 mice in group 4, and • 2/4 in group 3.

[3] = system: TNBS-induced colitis in C57 BL/6 male mice; assay: Trinitrobenzenesulfonate-induced colitis test in mice (Example 210); type: in vivo
Protocol: C57 BL/6 male mice (4-5 weeks) were obtained from M&B (Denmark), bred under standard pathogen-free conditions and maintained in the certified animal facility of the University Hospital Gasthuisberg, Catholic University of Leuven (Leuven, Belgium). Experiments were approved by the local Ethical Committee of Animal Experimentation. Colitis was induced by rectal administration of 1 mg trinitrobenzenesulphonate (hereinafter referred as TNBS) in 50% ethanol with 2 times pre-sensitization. Briefly, mice were sensitized twice 10 days and 5 days before challenge. For sensitization, a 2×2 cm field of the abdominal skin was shaved, and 100 μl of 5 mg TNBS in 50% ethanol solution was applied. On the day of challenge, mice were first lightly anesthetized with metofane, subsequently TNBS was administered per rectum via a round-tip needle equipped with a 1-ml syringe. The tip of the needle was inserted so that the tip was 3.5 to 4 cm proximal to the anal verge and TNBS was injected with a total volume of 100 μl. To ensure distribution of TNBS within the entire colon and cecum, mice were held in a vertical position for 1 minute after the injection.
The compound of example 17 (2-amino-4-[(N-phenoxyacetyl)-piperazin-1-yl]-6-(3,4-dimethoxy-phenyl)pteridine) was given by daily intra-peritoneal injection at the dose of 20 mg/kg (400 μg dissolved in 100 μl PBS with 10% DMSO). Control mice were treated with vehicle only. Body weights of all animals were recorded daily in order to follow the development of inflammatory colitis over a period of 10 days.
Both macroscopic and microscopic histology evaluations were performed as follows. Briefly, mice were sacrificed at day 2 by cervical […], the colon was excised and was immediately examined visually, and damage was scored on a 0-12 scale, as described previously by Shen et al. in Int. Immunopharmacol. (2004), 4:939-951. Colon sections were then fixed in 6% formalin and embedded in paraffin, cut into sections, and then stained with hematoxylin and eosin. Stained sections were examined for evidence of colitis using as criteria the presence of cell infiltration, elongation and/or distortion of crypts, crypt abscesses, reduction in goblet cell number, frank ulceration, and edema formation.
Myeloperoxidase (MPO) activity was measured as described previously by Shen et al. (cited supra). Briefly, two days after intracolonic injection of TNBS, 50 mg colon was removed, homogenised and sonicated on ice. Samples were frozen in liquid nitrogen and subsequently thawed in a water bath at 37° C., each step lasted 3 minutes and the procedure was repeated for two cycles. After centrifugation an aliquot of the supernatant was then allowed to react with a solution of tetra-methyl-benzidine (1.6 mM) and 0.1 mM H2O2. The rate of change in absorbance was measured spectrophotometrically at 460 nm. MPO activity was defined as the quantity of enzyme degrading 1 μmol of peroxide/minute at 37° C. and was expressed in units per gram weight of wet tissue. Sample enzyme activity was measured from a standard curve of known MPO unit activity (assay sensitivity 5×10^−7 units per well).
Serum levels of antibodies generated against TNBS were measured in the mouse sera on the 10th day after disease induction by enzyme-linked immunosorbent assay (ELISA). The ELISA method used herein is as reported in detail by Shen et al (cited supra).
Quantitative Reverse Transcriptase (RT)-PCR for cytokine mRNA was performed as follows: part of the colon removed on day 2 after TNBS application was immediately frozen in liquid nitrogen after dissection and stored at −70° C. until extraction of total RNA using the method of Shen et al (cited supra). A constant amount of 1 μg of total RNA was used for oligo-(dT)-primed cDNA synthesis (Ready-to-go-kit, Pharmacia, Uppsala, Sweden). After 90 minutes at 37° C., the reverse transcriptase was inactivated by incubating the cDNA samples for 5 minutes at 95° C. […]

[4] = group 4: example 17 20 mg/kg i.p. combined with TNF 15 μg s.c.

Compound: COc1ccc(-c2cnc3nc(N)nc(N4CCN(C(=O)COc5ccccc5)CC4)c3n2)cc1OC [Example 17, 2-amino-4-[(N-phenoxyacetyl)-piperazin-1-yl]-6-(3,4-dimethoxy-phenyl)pteridine]
- mortality or cytotoxic effect on increasing the dose [1]: no mortality or cytotoxic effect
- tumor size ([2]; group 3: example 17 alone 3 times a week at 20 mg/kg): 198 mm^2
- proportion of mice having metastasis ([2]; group 3: example 17 alone): 2/4
- mortality [2, 4]: 3/7
- tumor size [2, 4]: 120 mm^2
- proportion of mice having metastasis ([2]; group 4: example 17 combined with TNF): 0/4
- days required to recover original body weight ([3]; daily i.p. 20 mg/kg): 6 days
- microscopic score ([3]; daily i.p. 20 mg/kg, day 2): 6.0±0.7
- average macroscopic score ([3]; daily i.p. 20 mg/kg, day 2, 0-12 scale): 6.3±0.7
- MPO activity in colon ([3]; daily i.p. 20 mg/kg, two days after TNBS): 8.9±2.0 U/g
- reduction in average macroscopic score ([3]; daily i.p. 20 mg/kg, versus control mice): 30%
- cytokine mRNA levels for TNF-α, IL-18 and IFN-γ in colon ([3]; day 2, differences did not reach statistical significance): all reduced
- Anti-TNBS antibody (IgG2a) levels ([3]; serum, after treatment): 76.6±3.3 OD
- Anti-TNBS antibody (IgG1) levels ([3]; serum, compared to untreated mice): significantly lower
